Data on eight molecules can be found in patent US20150377876A1, “DIAGNOSTIC TOOLS TO PREDICT ONSET OF PREECLAMPSIA” (UNIVERSITY OF IOWA RESEARCH FOUNDATION, priority 2013, published 2015).

Data set [1] relates to abdominal aorta. The note with it: for Maximum Response, contraction / EC50 / Maximum Response, relaxation: abdominal aorta; for EC50: read-out: EC50, contractile response; for Maximum Response, relaxation: after sub-maximal contraction with PGF2a.
Description: (§1) Aortic Vascular Reactivity: Abdominal aortic rings were assessed for vascular reactivity as previously described (30). Briefly, mice were euthanized by overdose of pentobarbital (50 mg, i.p.), and the abdominal aorta was quickly removed and placed in Kreb's buffer containing (in mmol/L): 118.3 NaCl, 4.7 KCl, 1.2 MgSO4, 1.2 KH2PO4, 25 NaHCO3, 2.5 CaCl2 and 11 glucose. Vascular rings (4-5 mm in length) were suspended in oxygenated Kreb's buffer (95% O2/5% CO2) in organ baths at 37° C. and connected to a force transducer via steel hooks. Resting tension was adjusted to 0.5 grams over 45 minutes.
(§2) Statistics: Data were analyzed by ANOVA with repeated measures as appropriate. Post-hoc analyses were performed using Bonferroni multiple-comparisons procedures. EC50 and maximum response calculations were performed by fitting individual dose-response data sets to a four-parameter logistic function (Hillslope method); y=min+(max−min)/(1+(x/EC50)̂Hill slope). […] All analytical comparisons were performed using SigmaStat/SigmaPlot (Systat). All data are presented as mean±sem.
The subject of data set [2] is 2°-branch mesenteric artery. The experiment in a line: tissue or blood. More on the design: species or system mice. Conditions: for Maximum Response, contraction / EC50: mesenteric artery; for EC50: read-out: EC50, contractile response. On the procedure: Mesenteric Artery Vascular Reactivity: Secondary branches of mesenteric artery were dissected and placed in chilled oxygenated (21% O2, 5% CO2, and 74% N2) Kreb's buffer. A segment (˜1 mm long) of artery was transferred to a vessel chamber (DMT), cannulated with glass micropipettes and secured with silk ligatures. The artery was slowly pressurized to 40 mmHg without flow. After 30 min equilibration, vessel viability was tested by constriction response to 100 mM KCl. Vascular responses to PE (10-9-10-5 mol/L), AVP (10-12-10-7 mol/L), and ET-1 (10-11-10-8 mol/L) were then assessed. The artery was then superfused with calcium-free Krebs buffer containing 10-5 mol/L sodium nitroprusside and 2 mmol/L EGTA to maximally dilate the vessel. Internal and external diameters were measured at 75 mm Hg. Wall thickness, media/lumen ratio and cross sectional area (CSA) were calculated as previously described by Neves, et al. (58).
Statistics: Data were analyzed by ANOVA with repeated measures as appropriate. Post-hoc analyses were performed using Bonferroni multiple-comparisons procedures. EC50 and maximum response calculations were performed by fitting individual dose-response data sets to a four-parameter logistic function (Hillslope method); y=min+(max−min)/(1+(x/EC50)̂Hill slope). All mRNA fold changes were calculated using the Livak method (51). All analytical comparisons were performed using SigmaStat/SigmaPlot (Systat). All data are presented as mean±sem.

The test system of data set [3] is sRA mice. As to the kind of experiment: Blood pressure by tail-cuff during chronic subcutaneous infusion. Conditions: 22 ng/h sc by osmotic minipump, 10 days. The class given is in vivo.
Description: Here we first examined blood pressure in sRA mice using a Visitech Systems BP-2000 tail-cuff blood pressure monitoring system, as previously described (79). Briefly, animals were acclimated to warmed restraint boxes daily for 1 wk. Once acclimated, 30 measurements of systolic blood pressure were averaged from each animal daily for 2 wk to assess baseline blood pressure. Conivaptan (Vaprisol, YM 087, 22 ng/h sc, Baxter Healthcare) or tolvaptan (OPC-41061, 22 ng/h sc, Sigma Aldrich) was delivered to distinct subsets of mice by osmotic minipump (model 1004, Alzet). After osmotic minipump implantation, pressures were recorded daily for 10 days to assess drug effects.
In data set [4] the test system is sRA mice. The experiment in a line: Radiotelemetric blood pressure, heart rate and physical activity during chronic subcutaneous infusion. Type of data set: in vivo. The note with it: for radiotelemetric blood pressure: sRA mice, 22 ng/h sc infusion (conivaptan 18 days, one female; tolvaptan 10 days, n=4 female). On the procedure: Blood pressure (telemetry). Radiotelemetric blood pressures were recorded from the carotid artery essentially as previously reported (27). Briefly, a telemeter probe (DSI, model TA11PA-C10) was inserted into the common carotid artery under ketamine-xylazine anesthesia. After >2 days of recovery, blood pressure, heart rate, and spontaneous physical activity were recorded for 30 s every 5 min using the Dataquest program (DSI). After baseline recordings, mice were chronically delivered conivaptan and tolvaptan via osmotic minipump that was implanted through an interscapular incision into the subcutaneous space of the back under isoflurane anesthesia.

For data set [5], the system named is sRA and control littermate mice. As to the kind of experiment: Blood chemistry following tolvaptan infusion (iSTAT CHEM8+). Type of data set: in vivo. Conditions: for Anion gap / BUN / Chloride / Glucose / Hematocrit / Ionized calcium / Potassium / Sodium / Total CO2 / Creatinine: tolvaptan 22 ng/h, 10 days sc; for Creatinine: lower detection limit 0.20 mg/dl. On the procedure:
Blood and urine analyses: Plasma was obtained by collecting whole blood by submandibular bleed into lithium heparin coated tubes, then centrifuged at 5,000×g for 5 minutes, and the supernatant transferred to a fresh tube and frozen at −80° C. until analysis. Urine was collected using Nalgene single-mouse metabolism cages as previously described (20). Copeptin was measured using an ELISA kit (USCN Life Sciences), according to the manufacturer's instructions. Blood chemistries and urine creatinine were determined using a handheld iSTAT clinical chemistry analyzer (Abbott), with CHEM8+ cartridges. Urine protein was determined using a bicinchoninic acid assay kit (Thermo Fisher/Pierce), according to the manufacturer's instructions.

The test system of data set [6] is abdominal aorta. As to the kind of experiment: tissue or blood. Conditions: Mus musculus.
Description: as §1, §2
The mark [7] stands for this setting: female sRA mouse, 22 ng/h sc, 18 days.

Each structure is given as a SMILES string. Like-named read-outs stand apart in the source and are kept apart here.

The term EC50 denotes the midpoint of the concentration-response curve. Regarding `CCCCC[C@H](O)/C=C/[C@@H]1[C@@H](C/C=C\CCCC(=O)O)[C@@H](O)C[C@H]1O` [Prostaglandin F2α, prostaglandin F2a], in data set [1] (male control littermate mice), the “Maximum Response, contraction” value worked out at 1.59 ± 0.06 g and the EC50 worked out at 4600 nM. Further, in data set [1] (male sRA mice), the “Maximum Response, contraction” value is reported as 1.50 ± 0.10 g and the EC50 turned out to be 3600 nM.

In the case of `CC[C@H](C)[C@H](NC(=O)[C@H](CC(=O)O)NC(=O)[C@H](CC(C)C)NC(=O)[C@H](Cc1c[nH]cn1)NC(=O)[C@@H]1CSSC[C@H](N)C(=O)N[C@@H](CO)C(=O)N[C@H]2CSSC[C@H](NC(=O)[C@H](CCC(=O)O)NC(=O)[C@H](CCCCN)NC(=O)[C@H](CC(=O)O)NC(=O)[C@H](CCSC)NC(=O)[C@H](CC(C)C)NC(=O)[C@H](CO)NC(=O)[C@H](CO)NC2=O)C(=O)N[C@@H](C(C)C)C(=O)N[C@@H](Cc2ccc(O)cc2)C(=O)N[C@@H](Cc2ccccc2)C(=O)N1)C(=O)N[C@H](C(=O)N[C@@H](Cc1c[nH]c2ccccc12)C(=O)O)[C@@H](C)CC` [Endothelin-1, endothelin-1], the Maximum Response, contraction came to 67.8 ± 4.3% in data set [2] (male control littermate mice), 58 ± 4.6% in data set [2] (male sRA mice), 0.45 ± 0.04 g in data set [1] (male control littermate mice) and 0.55 ± 0.09 g in data set [1] (male sRA mice). The EC50 in data set [2] (male control littermate mice) was found to be 1.68 ± 0.43 nM; in data set [2] (male sRA mice) it was 0.45 ± 0.17 nM; in data set [1] (male control littermate mice) it was 3.4 ± 0.33 nM; in data set [1] (male sRA mice), 5.19 ± 0.93 nM.

As for `Cc1ccccc1C(=O)Nc1ccc(C(=O)N2CCC[C@@H](O)c3cc(Cl)ccc32)c(C)c1` [Tolvaptan, tolvaptan], the “systolic blood pressure (tail-cuff), effect on hypertension” value in data set [3] is listed as “nearly identical normalization of blood pressure”. Moreover, the radiotelemetric blood pressure result in data set [4] was “blood pressure reduction was confirmed”. In data set [5] (female control mice), this molecule came in with an Anion gap of 17.0 ± 1.5 mM, a BUN of 18.4 ± 0.9 mg/dL, a Chloride of 112.4 ± 0.5 mM and a Glucose of 190 ± 13 mg/dL. Also, in data set [5] (female control mice), the Hematocrit was determined as 45.4 ± 0.7 % RBC, the Ionized calcium is 1.19 ± 0.05 mM, the Potassium turned out to be 6.4 ± 0.1 mM and the Sodium was determined as 146.2 ± 0.7 mM. Moreover, in data set [5] (female control mice), the “Total CO2” value is recorded as 24.0 ± 1.1 mM and the Creatinine was 0.24 ± 0.02 mg/dL. In data set [5] (female sRA mice), this molecule came in with an Anion gap of 18.5 ± 0.7 mM, a BUN of 24.5 ± 1.7 mg/dL, a Chloride of 105.2 ± 1.6 mM and a Glucose of 136 ± 15 mg/dL. Further, in data set [5] (female sRA mice), the Hematocrit is reported as 49.8 ± 1.1 % RBC, the Ionized calcium is recorded as 1.18 ± 0.03 mM, the Potassium turned out to be 5.3 ± 0.3 mM and the Sodium was 146.3 ± 0.7 mM. Further, in data set [5] (female sRA mice), the “Total CO2” value was found to be 28.8 ± 1.7 mM and the Creatinine turned out to be 0.33 ± 0.04 mg/dL. In data set [5] (male control mice), this molecule displayed an Anion gap of 16.3 ± 0.5 mM, a BUN of 21.5 ± 0.9 mg/dL, a Chloride of 115.5 ± 0.3 mM and a Glucose of 182 ± 7 mg/dL. In data set [5] (male control mice), the Hematocrit was 43.8 ± 1.1 % RBC, the Ionized calcium was determined as 1.18 ± 0.04 mM, the Potassium came out at 6.6 ± 0.5 mM and the Sodium is listed as 148.3 ± 1.3 mM. Besides, in data set [5] (male control mice), the “Total CO2” value turned out to be 24.0 ± 0.8 mM and the Creatinine came to 0.25 ± 0.03 mg/dL. In data set [5] (male sRA mice), this molecule had an Anion gap of 21.0 ± 2.4 mM, a BUN of 27.3 ± 2.1 mg/dL, a Chloride of 107.0 ± 2.7 mM and a Glucose of 181 ± 28 mg/dL. Further, in data set [5] (male sRA mice), the Hematocrit turned out to be 52.0 ± 1.1 % RBC, the Ionized calcium turned out to be 1.18 ± 0.03 mM, the Potassium turned out to be 5.4 ± 0.1 mM and the Sodium was 147.5 ± 1.9 mM. In addition, in data set [5] (male sRA mice), the “Total CO2” value is reported as 26.0 ± 3.4 mM and the Creatinine is 0.30 ± 0.04 mg/dL. The “effect on hyponatremia and hypocalcemia” value in data set [5] (sRA mice, chronic tolvaptan 22 ng/h sc, 10 days) is “corrected both of these imbalances”.

For the molecule `Cc1nc2c([nH]1)-c1ccccc1N(C(=O)c1ccc(NC(=O)c3ccccc3-c3ccccc3)cc1)CC2` [conivaptan], the “systolic blood pressure (tail-cuff), effect on hypertension” value in data set [3] was “complete normalization of the hypertension”. In data set [4] (setting [7]), the “heart rate (telemetry)” value is given as “slight reduction in heart rate” and the spontaneous physical activity result is “remained normal”. The radiotelemetric blood pressure result in data set [4] is “gradual but substantial reduction in blood pressure”.

For the molecule `CNC[C@H](O)c1cccc(O)c1` [Phenylephrine, phenylephrine], the concentration giving a half-maximal response (EC50) in data set [2] (Mus musculus, male control littermate mice) was 1460 nM; in data set [2] (Mus musculus, male sRA mice) it was 560 ± 80 nM; in data set [6] (read-out: EC50, contractile response, abdominal aorta, male control littermate mice), 1900 nM; in data set [6] (read-out: EC50, contractile response, abdominal aorta, male sRA mice) it was 2430 nM. Moreover, the Maximum Response, contraction in data set [2] (male control littermate mice) came to 67.3 ± 3%; in data set [2] (male sRA mice) it was 64.5 ± 4.1%; in data set [1] (male control littermate mice), 1.18 ± 0.05 g; in data set [1] (male sRA mice), 1.02 ± 0.10 g.

For the molecule `[Cl-].[K+]` [potassium chloride], in data set [2] (mesenteric artery branches of sRA mice vs control, 100 mM KCl), the “contractile response to potassium chloride” value is recorded as “significant reduction in contractile response”. Also, the “constrictor response to potassium chloride” value in data set [1] (aortic rings from sRA mice vs control, 100 mmol/l KCl) is “normal constrictor responses”.

For the molecule `CC[C@H](C)[C@H](NC(=O)[C@H](Cc1ccc(O)cc1)NC(=O)[C@@H](NC(=O)[C@H](CCCNC(=N)N)NC(=O)[C@@H](N)CC(=O)O)C(C)C)C(=O)N[C@@H](Cc1c[nH]cn1)C(=O)N1CCC[C@H]1C(=O)N[C@@H](Cc1ccccc1)C(=O)O` [Angiotensin II, angiotensin II], the results for the “Maximum Response, contraction” value in data set [1] (male control littermate mice) and in data set [1] (male sRA mice) were 0.32 ± 0.03 g and 0.38 ± 0.03 g, respectively.

As to `CC(=O)OCC[N+](C)(C)C` [Acetylcholine, acetylcholine], the figures for the Maximum Response, relaxation in data set [1] (male control mice) and in data set [1] (male sRA mice) were 78.9 ± 3.3% and 70.4 ± 8.9%, respectively. Further, the EC50 was 130 ± 35 nM in data set [6] (read-out: EC50, relaxation response, abdominal aorta, male control mice, after sub-maximal contraction with PGF2a) and 879 ± 298 nM in data set [6] (read-out: EC50, relaxation response, abdominal aorta, male sRA mice, after sub-maximal contraction with PGF2a).
